# Measurements taken from PMC3208124 (Journal of medicinal chemistry, 2011).
# What was measured:
# [1] = test system: Plasmodium falciparum K1 (drug resistant) strain; test: Growth inhibition of P. falciparum K1 in erythrocytic co-culture; format: cell-based; conditions: K1, read-out: EC50 K1
# [2] = test system: Plasmodium falciparum 3D7 (drug sensitive) strain; test: Growth inhibition of P. falciparum 3D7 in erythrocytic co-culture; format: cell-based; conditions: 3D7, read-out: EC50 3D7
smiles,measurement,setting,value
O=C(CCc1ccccc1)c1ccccc1OCC(O)CN1CCN(C(c2ccccc2)c2ccccc2)CC1 (centres unmarked) [Compound 6z],EC50,[1],≤ 100 nM
same,EC50,[2],≤ 100 nM
